Reference: patent publication US6420435B1, “Method for treating gastrointestinal disorders” (priority 1999, dated 2002)

Key:
[1] = test system: adults suffering from chronic heartburn or gastroesophagael reflux disorder (GERD); experiment: Initial studies of d-limonene treatment regimen in 19 adults with chronic heartburn or GERD, symptom ratings on a scale of 1-10; assay type: in vivo, human; conditions: for % of participants (every day regimen) with symptom rating = 1-2: 1 capsule 1000 mg every day; for % of participants (every other day regimen) with symptom rating = 1-2: 1 capsule 1000 mg every other day; for % of all participants with symptom rating = 1-2: 1000 mg d-limonene capsule every day or every other day; for % of all participants with symptom rating = 1-2 / percentage of participants achieving complete relief of symptoms (rating of 1): all participants
Description: Initial studies of the inventive treatment regimen were conducted at different times on 19 adults suffering from chronic heartburn or gastroesophagael reflux disorder (GERD). […] Thirty-seven (37%) of the total participants in these initial studies were male ranging in age from 42 to 73 years (average age=50 years), while sixty-three (63%) of the participants were female ranging in age from 34 to 70 years (average age=43). All of the participants discontinued using their respective treatments of choice (i.e. over-the-counter (OTC) and/or prescription medications) at least one day prior to beginning the inventive treatment regimen. Prior to beginning the treatment regimen, each participant was asked to rate the frequency and severity of his/her gastrointestinal disorder symptoms on a scale of 1-10. For “severity of symptoms,” 1 corresponded to complete relief of symptoms while 10 corresponded to severe, painful symptoms. A rating of 2 would correspond to mild symptoms. For “frequency of symptoms,” 1 corresponded to complete relief of symptoms while 10 corresponded to daily symptoms.
Eleven of the participants were administered 1 capsule of d-limonene every other day for 20 days. Five of the participants were administered 1 capsule of d-limonene every day for 16 to 20 days. Each capsule contained 1000 mg of d-limonene having a purity of from 98.5% to 99.3%.
FIG. 3 is a graph illustrating the percentage of all the participants (i.e. those undergoing the every other day regimen and every day regimen) having a severity rating of 1.

[2] = test system: participants suffering from mild/moderate heartburn to severe heartburn/GERD; experiment: Preliminary double-blind placebo study in 13 participants; assay type: in vivo, human; conditions: 1 capsule with 1 gram of 98% d-limonene, every day/every other day regimens
Description: A preliminary double-blind placebo study was conducted on 13 participants suffering from mild/moderate heartburn to severe heartburn/GERD. Seven participants were administered the product and six were administered a placebo. In the “limonene” group (i.e. 1 capsule containing 1 gram of 98% d-limonene), two participants were administered 1 capsule every day for five days followed by 1 capsule every other day for five days. The remaining “limonene” group participants were administered 1 capsule every other day for 20 days. In the “placebo” group, three participants were administered 1 placebo capsule (i.e. gelatin capsule containing soybean oil) daily for five days, followed by 1 capsule every other day for 5 days. Two participants were administered 1 placebo capsule every other day for 20 days while one participant having severe heartburn was administered 1 placebo capsule twice a day for 5 days, followed by 1 capsule every day for 5 days, followed by 1 capsule as needed. As shown in Table 4 (and FIG. 4), a significant difference in results was obtained between the two groups ([…]).

[3] = test system: persons suffering from diagnosed peptic ulcers; experiment: Treatment regimen in persons with diagnosed peptic ulcers; assay type: in vivo, human; conditions: 1,000 mg dose regimen, had to discontinue
Source text: The present invention is particularly useful in alleviating the severity and frequency of gastrointestinal disorders. […] As used herein, “gastrointestinal disorder” shall mean mild/moderate heartburn, stomach acid indigestion, and severe heartburn/GERD.

[4] = In vitro studies on mechanism of action; conditions: suggested mechanism, coating the stomach wall
Source text: The present invention is directed to a method for treating gastrointestinal disorders and comprises the oral administration of a therapeutically effective amount of limonene, preferably a purified form of d-limonene (i.e. at least 98%), to a person in need of such treatment. “Limonene” as used herein shall include both d-limonene and 1-limonene. […] The inventor has discovered that oral administration of a therapeutically effective amount of purified, food grade limonene (preferably at least 98% pure d-limonene), taken once daily or once every other day for 2 to 20 days, will alleviate or eliminate entirely the symptoms, both in terms of frequency and severity, of gastrointestinal disorders, such disorders ranging from mild/moderate heartburn and gastric indigestion to severe heartburn or gastro esophageal reflux disorder (GERD).

[5] = test system: individuals taking limonene; experiment: Side effects of limonene having at least 98% purity; assay type: in vivo, human; conditions: limonene having at least a 98% purity
Source text: Any conventional distillation method known by those of ordinary skill in the art for obtaining a highly purified form of d-limonene (about 98% pure) may be employed. Example 3 illustrates one preferred distillation method for removing the majority of contaminants.

[6] = test system: inventor with long history of severe heartburn; experiment: Inventor's own use of limonene for severe heartburn; assay type: in vivo, human; conditions: 500 mg to 1000 mg every other day for 8-20 days
Description: Similar results were obtained on another adult taking 1000 mg every other day as well as on participants of studies discussed in more detail in Examples 1-2.

C=C(C)[C@H]1CC=C(C)CC1 [d-limonene]
% of participants (every day regimen) with symptom rating = 1-2 ([1]; Day 2): 14%
% of participants (every other day regimen) with symptom rating = 1-2 ([1]; Day 2): 42%
% of participants (every day regimen) with symptom rating = 1-2 ([1]; Day 4): 29%
% of participants (every other day regimen) with symptom rating = 1-2 ([1]; Day 4): 42%
% of all participants with symptom rating = 1-2 ([1]; Day 4): 32%
percentage of participants with severity and frequency symptom ratings of 1-2 ([1]; Day 4, mild/moderate heartburn group): 55%
percentage of participants with severity and frequency symptom ratings of 1-2 ([1]; Day 4, severe heartburn/GERD group): 0%
% of participants (every day regimen) with symptom rating = 1-2 ([1]; Day 7): 57%
% of participants (every other day regimen) with symptom rating = 1-2 ([1]; Day 7): 67%
% of all participants with symptom rating = 1-2 ([1]; Day 7): 63%
percentage of participants with severity and frequency symptom ratings of 1-2 ([1]; Day 7, mild/moderate heartburn group): 82%
percentage of participants with severity and frequency symptom ratings of 1-2 ([1]; Day 7, severe heartburn/GERD group): 38%
% of participants (every day regimen) with symptom rating = 1-2 ([1]; Day 9): 71%
% of participants (every other day regimen) with symptom rating = 1-2 ([1]; Day 9): 75%
% of all participants with symptom rating = 1-2 ([1]; Day 9): 74%
percentage of participants with severity and frequency symptom ratings of 1-2 ([1]; Day 9, mild/moderate heartburn group): 82%
percentage of participants with severity and frequency symptom ratings of 1-2 ([1]; Day 9, severe heartburn/GERD group): 38%
percentage of participants with severity and frequency symptom ratings of 1-2 ([1]; Day 11, mild/moderate heartburn group): 91%
percentage of participants with severity and frequency symptom ratings of 1-2 ([1]; Day 11, severe heartburn/GERD group): 72%
% of participants (every day regimen) with symptom rating = 1-2 ([1]; Day 14): 86%
% of all participants with symptom rating = 1-2 ([1]; Day 14): 89%
percentage of participants with severity and frequency symptom ratings of 1-2 ([1]; Day 15, mild/moderate heartburn group): 91%
percentage of participants with severity and frequency symptom ratings of 1-2 ([1]; Day 15, severe heartburn/GERD group): 88%
percentage of participants achieving complete relief of symptoms (rating of 1) ([1]; day 2): about 20%
percentage of participants achieving complete relief of symptoms (rating of 1) ([1]; day 14): 79%
Product vs. Placebo result (percentage of participants, rating criterion not given) ([2]; Day 4): 29%
Product vs. Placebo result (percentage of participants, rating criterion not given) ([2]; Day 7): 29%
Product vs. Placebo result (percentage of participants, rating criterion not given) ([2]; Day 9): 71%
Product vs. Placebo result (percentage of participants, rating criterion not given) ([2]; Day 14): 86%
effect on severity of gastrointestinal symptoms in ulcer sufferers [3]: increase in the severity of gastrointestinal symptoms

C=C(C)[C@H]1CC=C(C)CC1 [limonene]
effect on gastric acid [4]: neutralizing effect on gastric acid
side effects such as diarrhea and headache [5]: significantly reduced certain side effects
severity and frequency of heartburn symptoms [6]: alleviated permanently
